Tests used:
PTPN1 = target: T1, PTPN1 (Homo sapiens, UniProt P18031); set-up: DiFMUP hydrolysis by purified PTPs, fluorescence Ex355/Em460, initial rates over 10 min; Michaelis-Menten and Lineweaver-Burk Km; settings: optimized pH for each PTP; substrate
T1 sequence (P18031 1-435): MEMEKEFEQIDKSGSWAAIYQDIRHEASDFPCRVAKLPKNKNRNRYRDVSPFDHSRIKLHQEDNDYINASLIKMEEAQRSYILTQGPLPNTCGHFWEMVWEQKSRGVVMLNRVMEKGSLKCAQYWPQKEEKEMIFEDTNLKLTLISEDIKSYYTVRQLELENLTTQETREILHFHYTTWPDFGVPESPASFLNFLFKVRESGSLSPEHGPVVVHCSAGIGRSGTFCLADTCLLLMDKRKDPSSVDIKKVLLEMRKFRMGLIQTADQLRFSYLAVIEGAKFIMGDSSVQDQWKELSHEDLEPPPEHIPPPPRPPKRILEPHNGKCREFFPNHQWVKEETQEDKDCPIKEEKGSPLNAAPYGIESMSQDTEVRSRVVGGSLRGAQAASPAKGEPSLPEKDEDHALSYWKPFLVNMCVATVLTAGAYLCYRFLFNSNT
Method: (§1) The enzymatic activity of each PTP was evaluated using 6,8-difluoro-4-methylumbelliferyl phosphate (DiFMUP) as the surrogate substrate. To reach within the range of the initial rate (v0) during the measurement for 10 min, the pH and concentration of each PTP were optimized and are listed in Table S3. To determine the Km values, each PTP with optimized concentration was added to the reaction buffer (20 mM Bis-Tris at pH 6.0 or Tris at pH 7.0 and 8.0, 150 mM NaCl, 2.5 mM dithiothreitol (DTT), 0.01% Triton X-100) containing various concentrations of DiFMUP to obtain a final volume of 100 μL in a 96-well plate. Fluorescence intensities were measured once every minute for a complete 10 min duration using a Victor™ X4 Multilabel Plate Reader (Perkin Elmer, Waltham, MA, USA) at excitation/emission = 355 nm/460 nm. The initial rates of the reaction were determined using a previously described procedure for calculating the amount of product formation. To screen a library of 1033 natural products (Chengdu Biopurify Phytochemicals Ltd., Chengdu, China) against 20 PTPs, each PTP with an optimized concentration was added to the reaction buffer with an optimized pH containing DiFMUP (2 × Km for each PTP) after adding each compound (20 μM). […] The Hill coefficient (nH), the degree of cooperativity, was calculated according to a previously published method. […]

PTPRJ = target: T2, PTPRJ (Homo sapiens, UniProt Q12913); set-up: DiFMUP hydrolysis by purified PTPs, fluorescence Ex355/Em460, initial rates over 10 min; Michaelis-Menten and Lineweaver-Burk Km; settings: optimized pH for each PTP; substrate
T2 sequence (Q12913 1-1337): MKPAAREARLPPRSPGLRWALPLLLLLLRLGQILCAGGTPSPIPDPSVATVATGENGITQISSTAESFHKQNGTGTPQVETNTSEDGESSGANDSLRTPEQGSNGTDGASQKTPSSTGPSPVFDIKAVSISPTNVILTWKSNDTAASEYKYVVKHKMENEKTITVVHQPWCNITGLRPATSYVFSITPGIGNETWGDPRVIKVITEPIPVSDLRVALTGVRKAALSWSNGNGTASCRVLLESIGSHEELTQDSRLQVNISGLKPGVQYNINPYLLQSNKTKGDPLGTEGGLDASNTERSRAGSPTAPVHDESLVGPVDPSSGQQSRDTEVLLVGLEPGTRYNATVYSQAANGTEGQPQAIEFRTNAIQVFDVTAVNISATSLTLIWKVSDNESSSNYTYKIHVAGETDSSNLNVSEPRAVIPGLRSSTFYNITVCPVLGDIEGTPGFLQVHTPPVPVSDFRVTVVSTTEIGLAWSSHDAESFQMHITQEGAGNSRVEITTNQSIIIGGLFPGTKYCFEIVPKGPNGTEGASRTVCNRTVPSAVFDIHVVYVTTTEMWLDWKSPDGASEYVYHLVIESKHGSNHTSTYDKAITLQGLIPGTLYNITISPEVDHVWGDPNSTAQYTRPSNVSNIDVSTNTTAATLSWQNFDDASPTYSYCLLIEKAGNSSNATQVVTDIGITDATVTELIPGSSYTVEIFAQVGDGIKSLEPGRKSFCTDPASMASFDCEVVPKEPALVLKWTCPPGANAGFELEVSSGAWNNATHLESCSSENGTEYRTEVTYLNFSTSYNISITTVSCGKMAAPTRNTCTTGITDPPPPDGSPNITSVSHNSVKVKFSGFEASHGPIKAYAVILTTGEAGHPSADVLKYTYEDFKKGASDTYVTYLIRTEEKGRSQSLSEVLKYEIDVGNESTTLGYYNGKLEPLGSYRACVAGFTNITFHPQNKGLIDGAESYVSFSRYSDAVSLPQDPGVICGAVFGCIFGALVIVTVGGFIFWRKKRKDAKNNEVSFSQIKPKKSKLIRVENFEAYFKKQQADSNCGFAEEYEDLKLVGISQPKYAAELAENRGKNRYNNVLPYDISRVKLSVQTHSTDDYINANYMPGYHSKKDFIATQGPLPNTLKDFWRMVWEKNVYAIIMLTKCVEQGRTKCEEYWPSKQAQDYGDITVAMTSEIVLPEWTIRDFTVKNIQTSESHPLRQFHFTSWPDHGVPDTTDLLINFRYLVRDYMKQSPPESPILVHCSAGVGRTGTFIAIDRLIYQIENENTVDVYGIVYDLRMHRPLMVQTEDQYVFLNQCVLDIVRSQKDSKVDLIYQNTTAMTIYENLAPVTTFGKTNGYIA
Method: as §1

PTPN6 [1] = target: T3, PTPN6 (Homo sapiens, UniProt P29350); assay: DiFMUP fluorescence phosphatase assay; Dixon and Lineweaver-Burk plots (IC50 […]); type: biochemical
T3 sequence (P29350 whole entry): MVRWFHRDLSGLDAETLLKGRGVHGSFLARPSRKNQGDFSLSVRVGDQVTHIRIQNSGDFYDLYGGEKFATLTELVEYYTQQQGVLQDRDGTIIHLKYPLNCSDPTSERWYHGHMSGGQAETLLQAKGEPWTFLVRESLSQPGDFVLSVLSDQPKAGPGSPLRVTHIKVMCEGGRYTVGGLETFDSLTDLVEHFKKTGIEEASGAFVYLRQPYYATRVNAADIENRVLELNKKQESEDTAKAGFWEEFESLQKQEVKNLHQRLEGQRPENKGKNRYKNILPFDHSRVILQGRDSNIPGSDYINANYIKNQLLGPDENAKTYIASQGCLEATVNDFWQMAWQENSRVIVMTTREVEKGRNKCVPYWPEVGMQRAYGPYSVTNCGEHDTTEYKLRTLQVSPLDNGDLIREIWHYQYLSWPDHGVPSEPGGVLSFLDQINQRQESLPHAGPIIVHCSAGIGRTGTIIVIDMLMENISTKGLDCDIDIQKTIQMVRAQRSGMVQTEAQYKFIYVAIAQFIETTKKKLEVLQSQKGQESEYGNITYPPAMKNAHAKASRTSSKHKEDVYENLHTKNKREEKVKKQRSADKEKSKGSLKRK

PTPN6 [2] = target: T3, PTPN6; assay: DiFMUP phosphatase screen, single dose […] (% inhibition, hit threshold […]); type: biochemical; settings: read-out: % inhibition at 20 μM

Row | SMILES | inhibition at 20 µM (PTPN6 [2]) [%] | further results
1 | Cc1cc(=O)oc2c(F)c(OP(=O)(O)O)c(F)cc12 [6,8-difluoro-4-methylumbelliferyl phosphate] | – | Km (PTPN1): 21.6 µM; Km (PTPRJ): 66.4 µM
2 | CCOC(=O)c1cc(O)c(O)c(O)c1 [compound 271, ethyl gallate] | – | Ki (PTPN6 [1]): 3.4 µM
3 | COc1ccc(-c2oc3c(CC=C(C)C)c(O[C@@H]4O[C@H](CO)[C@@H](O)[C@H](O)[C@H]4O)cc(O)c3c(=O)c2O)cc1 [compound 335, icariside I] | > 60 | –
4 | O=C1C=CC(=O)c2c(O)cccc21 [compound 362, juglone] | > 60 | –
5 | C[C@@H]1O[C@@H](Oc2c(-c3cc(O)c(O)c(O)c3)oc3cc(O)cc(O)c3c2=O)[C@H](O)[C@H](O)[C@H]1O [compound 429, myricetrin] | > 60 | –
6 | CCCCCCCCCCCCCCCCC(C(=O)O)C(O)(CC(=O)O)C(=O)O (stereo not shown) [compound 891, agaric acid] | > 60 | –
